The source of these data is PubChem BioAssay (NCI).

Test systems include CCRF-CEM leukemia; TK-10 renal; NCI-H522 lung; RXF 393 renal; LOX IMVI melanoma; T-47D breast; HCT-15 colon; MALME-3M melanoma; SW-620 colon; UACC-62 melanoma; DU-145 prostate; SN12C renal; MDA-MB-435; ACHN renal; SF-295 CNS; NCI-H23 lung; OVCAR-4 ovarian; HOP-62 NSCLC; MDA-MB-231 breast; PC-3 prostate.
What all share (assay): NCI-60 cell line screen, 48 h

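All cell lines were grown in 96-well plates and treated with compound for 48 hours. Definition used: TGI = concentration required for complete inhibition of growth.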 Where only a bound is given, the exact number is not on record here.

Regarding `COc1cc2cc(C(=O)N3CC(CCl)c4c3cc(O)c3ccccc43)[nH]c2c(OC)c1OC` (stereo unspecified), the TGI with CCRF-CEM leukemia is less than 0.005 µM; with TK-10 renal, greater than 50 µM; in the experiment on NCI-H522 lung, 0.155 µM; with RXF 393 renal it was less than 0.005 µM; in the experiment with LOX IMVI melanoma it was 0.625 µM; with T-47D breast, greater than 50 µM. The TGI in the experiment on HCT-15 colon is 0.588 µM; with MALME-3M melanoma, less than 0.005 µM; with SW-620 colon it was greater than 50 µM; in the experiment with UACC-62 melanoma, 0.291 µM; with DU-145 prostate, greater than 50 µM.

As to `COc1ccc(/C=C2\CN(C)CC3C2=NN(c2ccccc2)C3c2ccc(OC)cc2)cc1` (stereo unspecified), the TGI in the experiment on CCRF-CEM leukemia is greater than 100 µM; in the experiment on TK-10 renal it was 91.8 µM; in the experiment with SN12C renal it was greater than 100 µM; in the experiment with MDA-MB-435 it was greater than 100 µM; in the experiment with NCI-H522 lung, greater than 100 µM; with RXF 393 renal, 48.2 µM. Further, the TGI with LOX IMVI melanoma, in the experiment on ACHN renal, in the experiment on SF-295 CNS, in the experiment on T-47D breast, in the experiment on NCI-H23 lung and in the experiment with HCT-15 colon was greater than 100 µM throughout. Moreover, the TGI with MALME-3M melanoma, in the experiment on OVCAR-4 ovarian, in the experiment with SW-620 colon, in the experiment on UACC-62 melanoma, in the experiment on DU-145 prostate and in the experiment on HOP-62 NSCLC was greater than 100 µM in each case.

As to `COc1cc(C(=O)OCCn2[nH]c(-c3ccc(Cl)cc3)nc2=S)cc(OC)c1OC`, the TGI in the experiment on CCRF-CEM leukemia, with TK-10 renal, in the experiment with MDA-MB-231 breast, in the experiment on SN12C renal, in the experiment on MDA-MB-435 and in the experiment with NCI-H522 lung was greater than 100 µM each time. The TGI with RXF 393 renal, in the experiment on PC-3 prostate, with LOX IMVI melanoma, with ACHN renal, in the experiment with SF-295 CNS and with NCI-H23 lung was greater than 100 µM in each case. The TGI in the experiment with HCT-15 colon, with MALME-3M melanoma, in the experiment on OVCAR-4 ovarian, with SW-620 colon, in the experiment with UACC-62 melanoma and in the experiment on DU-145 prostate was greater than 100 µM in each case. Moreover, the TGI in the experiment on HOP-62 NSCLC was greater than 100 µM.

For `Cc1ccc(S(=O)(=O)N2CCCSCCN(S(=O)(=O)c3ccc(C)cc3)CCCSCC2)cc1`, the TGI in the experiment on TK-10 renal, in the experiment with MDA-MB-231 breast, in the experiment with SN12C renal, in the experiment with MDA-MB-435, with RXF 393 renal and in the experiment on ACHN renal was greater than 100 µM throughout. The TGI with SF-295 CNS, in the experiment with T-47D breast, in the experiment with NCI-H23 lung, in the experiment on OVCAR-4 ovarian, with SW-620 colon and in the experiment on UACC-62 melanoma was greater than 100 µM in each case. Further, the TGI in the experiment with DU-145 prostate and in the experiment on HOP-62 NSCLC was greater than 100 µM in each case.

As to `O=c1[nH]c(=O)n2n1C1C=CC2CC1`, the TGI in the experiment with CCRF-CEM leukemia, in the experiment on TK-10 renal, in the experiment on MDA-MB-231 breast, in the experiment on SN12C renal, with MDA-MB-435 and with PC-3 prostate was greater than 100 µM in each case. Also, the TGI in the experiment with LOX IMVI melanoma, in the experiment on ACHN renal, with SF-295 CNS, in the experiment with T-47D breast, in the experiment on NCI-H23 lung and in the experiment on HCT-15 colon was greater than 100 µM each time. The TGI in the experiment with SW-620 colon, in the experiment with UACC-62 melanoma, in the experiment on DU-145 prostate and in the experiment with HOP-62 NSCLC was greater than 100 µM in each case.

As for `Cc1c(-c2ccc(O)c(O)c2)oc(=O)c2c(O)cccc12`, the TGI in the experiment on CCRF-CEM leukemia was greater than 100 µM; in the experiment with TK-10 renal it was 67 µM; in the experiment with SN12C renal, 19.5 µM; in the experiment with MDA-MB-435, 12.3 µM; with NCI-H522 lung, 15.5 µM; with RXF 393 renal, 36 µM. Also, the TGI in the experiment with PC-3 prostate was 52.1 µM; in the experiment on ACHN renal it was greater than 100 µM; in the experiment on SF-295 CNS it was 42.2 µM; in the experiment with T-47D breast, 15.4 µM; with NCI-H23 lung, 22 µM; with HCT-15 colon, 17.7 µM. Further, the TGI in the experiment on MALME-3M melanoma worked out at 26.9 µM; with OVCAR-4 ovarian it was 40.4 µM; with SW-620 colon it was 61.2 µM; in the experiment on DU-145 prostate, 47.2 µM; in the experiment with HOP-62 NSCLC it was 34.5 µM.

Turning to `Brc1ccc(-c2cc(-c3ccc4c(c3)OCO4)c(-c3cccs3)n2Cc2ccccc2)cc1`, the TGI in the experiment on CCRF-CEM leukemia, in the experiment with TK-10 renal, in the experiment on MDA-MB-231 breast, with SN12C renal, with MDA-MB-435 and in the experiment on RXF 393 renal was greater than 100 µM throughout. The TGI with PC-3 prostate, in the experiment with ACHN renal, with SF-295 CNS, in the experiment on T-47D breast, in the experiment with HCT-15 colon and in the experiment with OVCAR-4 ovarian was greater than 100 µM in each case. In addition, the TGI in the experiment on SW-620 colon, in the experiment on UACC-62 melanoma, with DU-145 prostate and in the experiment on HOP-62 NSCLC was greater than 100 µM throughout.

Regarding `O=C1CCCC[C@H]1C(O)CC1CC(=O)N(c2ccccc2)C(=O)C1` (stereo partly specified), the TGI with CCRF-CEM leukemia, in the experiment with TK-10 renal, in the experiment on MDA-MB-231 breast, in the experiment on SN12C renal, with MDA-MB-435 and in the experiment with NCI-H522 lung was greater than 100 µM in each case. In addition, the TGI in the experiment with RXF 393 renal, with PC-3 prostate, in the experiment with LOX IMVI melanoma, with ACHN renal, in the experiment on SF-295 CNS and in the experiment on NCI-H23 lung was greater than 100 µM throughout. Besides, the TGI with HCT-15 colon, in the experiment on MALME-3M melanoma, in the experiment on OVCAR-4 ovarian, in the experiment with SW-620 colon, with UACC-62 melanoma and in the experiment on DU-145 prostate was greater than 100 µM each time. The molecule also had a TGI with HOP-62 NSCLC greater than 100 µM.

As for `O=C1C2CC=CCC2C(=O)N1n1c(Cc2ccccc2)n[nH]c1=O` (stereo unspecified), the TGI with CCRF-CEM leukemia, with TK-10 renal, with MDA-MB-231 breast, in the experiment with SN12C renal, in the experiment with MDA-MB-435 and in the experiment on NCI-H522 lung was greater than 100 µM each time. Further, the TGI in the experiment on RXF 393 renal, in the experiment with PC-3 prostate, in the experiment on LOX IMVI melanoma, in the experiment on ACHN renal, with SF-295 CNS and in the experiment with T-47D breast was greater than 100 µM in each case. In addition, the TGI in the experiment with NCI-H23 lung, in the experiment with HCT-15 colon, with MALME-3M melanoma, with OVCAR-4 ovarian, in the experiment with SW-620 colon and in the experiment on UACC-62 melanoma was greater than 100 µM throughout. Further, in the experiment on HOP-62 NSCLC, the TGI was greater than 100 µM.

With `N#CCCN(CCC#N)c1ccc(C(N=Nc2ccc(Cl)cc2)=Nc2ccc(Cl)cc2)cc1`, the TGI in the experiment with CCRF-CEM leukemia is 65.3 µM; in the experiment with TK-10 renal it was 33.5 µM; with MDA-MB-231 breast, 42 µM; with SN12C renal, 33.5 µM; in the experiment with MDA-MB-435 it was 88.3 µM; in the experiment with NCI-H522 lung, 32.5 µM. For the same molecule, the TGI in the experiment with RXF 393 renal is 29.1 µM; in the experiment on PC-3 prostate it was 32.1 µM; in the experiment with ACHN renal it was 34 µM; with SF-295 CNS, 29.2 µM; in the experiment with T-47D breast, 23.9 µM; in the experiment on NCI-H23 lung, 41.8 µM. In addition, the TGI with HCT-15 colon was 23.7 µM; with OVCAR-4 ovarian, 81.2 µM; in the experiment on SW-620 colon, 34.3 µM; with UACC-62 melanoma, 30.2 µM; in the experiment with DU-145 prostate it was 30.3 µM; with HOP-62 NSCLC, 50.8 µM.

In the case of `COc1cccc(C=C2N=C(C)N(n3c(-c4ccccc4)nc4ccccc4c3=O)C2=O)c1`, the TGI with CCRF-CEM leukemia, with TK-10 renal, in the experiment with MDA-MB-231 breast, in the experiment on SN12C renal, in the experiment with MDA-MB-435 and in the experiment on NCI-H522 lung was greater than 100 µM each time. In addition, the TGI in the experiment with PC-3 prostate, in the experiment with LOX IMVI melanoma, with ACHN renal, with SF-295 CNS, in the experiment on T-47D breast and with NCI-H23 lung was greater than 100 µM in each case. In addition, the TGI in the experiment with HCT-15 colon, in the experiment with SW-620 colon, with UACC-62 melanoma, in the experiment on DU-145 prostate and in the experiment with HOP-62 NSCLC was greater than 100 µM in each case.

With `CCOC(=O)c1cn2c(ccc3sc4ccccc4c(=O)c32)n1`, the TGI in the experiment with CCRF-CEM leukemia, with TK-10 renal, in the experiment on MDA-MB-231 breast, in the experiment with SN12C renal, in the experiment with MDA-MB-435 and in the experiment on NCI-H522 lung was greater than 100 µM each time. The TGI in the experiment with RXF 393 renal, with PC-3 prostate, in the experiment with LOX IMVI melanoma, with ACHN renal, in the experiment with SF-295 CNS and in the experiment on NCI-H23 lung was greater than 100 µM each time. In addition, the TGI in the experiment on HCT-15 colon, in the experiment on MALME-3M melanoma, in the experiment on SW-620 colon, with DU-145 prostate and in the experiment with HOP-62 NSCLC was greater than 100 µM throughout.
